{"source": "patent US11192932B2", "about": "“Heparin-binding domain of IGFBP-2 in the treatment of metabolic disorders” (Amolyt Pharma, priority 2018, dated 2021)", "key": {"[1]": {"tested_on": "AMPK", "test": "AMPK phosphorylation (immunoblot anti-pAMPK T172) in C2C12 myotubes", "assay_type": "cell-based, mouse", "settings": "C2C12 myotubes, peptide incubated 8 hours (FIG. 7)", "method": "In particular: HBD1 SEQ ID NO: 73 (C18:0-HLGLEEPKK). The AMPK pathway is both insulin and IGF1 independent, but acts ultimately to induce GLUT4 translocation to the cell membrane to facilitate the uptake and metabolism of glucose.\nFor signaling studies the cells were prepared the same way except 6-well plates were used. After 6 days incubation in differentiating medium, the cells were washed with serum-free medium. The various treatments were then added in serum free medium containing 0.1% BSA. HBD1 peptides were added and incubated for 8 hours. When utilizing IGF-I, incubation was for 15 minutes after IGF-1 addition. Following incubation the cells were lysed in RIPA buffer and sonicated. The cell lysate was centrifuged and the supernatant analyzed for either Akt or AMPK by SDS PAGE using a 10% gel followed by immunoblotting with the appropriate antibody.\nTo examine further the intracellular transduction pathways utilized by the HBD1 peptides, following treatment with HBD1 peptide SEQ ID NO: 73 (C18:0-HLGLEEPKK), cell lysate proteins, were separated by SDS PAGE and immunoblotted with anti-pAMPK T172."}, "[2]": {"tested_on": "C2C12 mouse skeletal muscle myotubes", "test": "3H-2-deoxyglucose uptake by fully differentiated C2C12 myotubes", "assay_type": "cell-based", "method": "In particular: HBD1 SEQ ID NO: 73 (C18:0-HLGLEEPKK) at 0.8 μM, 1.5 μM, and 2.3 μM; or 1.5 μM SEQ ID NO: 73 (C18:0-HLGLEEPKK) for 2, 4, and 16 hours prior to testing glucose uptake.\nThe studies were performed using cultured, fully differentiated C2C12 mouse skeletal muscle myotubes. The cells were prepared by growing C2C12 cells to confluent density in DMEM with 25 mM glucose and 10% fetal bovine serum in 24 well plates. At this time, the medium was changed to differentiation medium (DMEM with 25 mM glucose and 2% horse serum) for 6 days with medium changed every third day. The various treatments were diluted in serum-free medium and, after washing the cells with serum-free medium, were added to the cells and incubated for 2 hours or alternative times, depending on the treatment. At the end of incubation period, the media was removed and 1.0 ml of glucose-free Krebs ringer bicarbonate buffer (pH 7.4), containing the same treatments, was added and incubation continued for 10 minutes. At the end of the 10 min incubation period, ^3H-2-deoxyglucose ([…]) (specific activity=8 Ci/mmole) was added directly to all wells, and the incubation continued for an additional […]. The wells were then rinsed three times with ice cold phosphate buffered saline, the cells were extracted with 0.5 N NaOH, and the ^3H-2-deoxyglucose content of the cell lysate quantitated by scintillation counting."}, "[3]": {"tested_on": "ob/ob mice", "test": "Glucose telemetry and IPGTT in glucose-telemetered ob/ob mice, 28 days of treatment", "assay_type": "in vivo, mouse", "settings": "for glucose intolerance (3-hour IPGTT profile): glucose telemetered ob/ob mice, 1 and 3 mg/kg s.c. twice daily, 28 days, glucose 1 g/kg i.p., vs vehicle; for 16-hour mean blood glucose levels: day 27, normal fed conditions, vs baseline (Day -1) and vehicle", "method": "FIG. 2A: 3-hour intraperitoneal glucose tolerance test profiles after 28 days of acylated HBD1 (3-11) fragment treatment. (n=5-8 in each group; p value <0.0001 at both doses vs VHL), Two-way ANOVA with multiple comparison, ****p<0.0001; FIG. 2B: fasting blood glucose levels (average value within 10 min prior to IPGTT) after 28 days of acylated HBD1 (3-11) fragment treatment. (n=5-8 in each group; p value <0.005 at the 3 mg/kg dose vs VHL), Unpaired two-tailed t-test vs VHL, ***p<0.005; FIG. 2C: Areas under the curve of the 3-hour intraperitoneal glucose tolerance test profiles after 28 days of acylated HBD1 (3-11) fragment treatment. (n=5-8 in each group), Unpaired two-tailed t-test vs VHL,*p<0.05, ****p<0.0001.\nFIG. 3A: 16-hour mean blood glucose levels before (Day −1) and after 27 days of acylated HBD1 (3-11) fragment treatment. (n=5-8 in each group; **p value <0.001 at the 3 mg/kg dose vs VHL); FIG. 3B: Change from baseline in 16-hour mean blood glucose level after 27 days of acylated HBD1 (3-11) fragment treatment. (n=5-8 in each group; **p value <0.01 at the 3 mg/kg dose vs VHL).\nTo further assess the effects of HBD1 peptides on glucose and insulin metabolisms, basal blood glucose and glucose response to an intraperitoneal glucose tolerance test (IPGTT) were assessed in glucose-telemetered obese ob/ob mice after twice daily administration of HBD peptides for 28 consecutive days. Implantation of glucose telemetry device (HD-XG, Data Science International) was carried out according to known protocols.\nA dose of HBD peptide fragment of SEQ ID NO: 73 (C18:0-HLGLEEPKK) was administered twice daily at 8-hour±1 hour interval between the two daily administrations. 24 V-Lepob/J (Ob/Ob) male mice (The Jackson Laboratory, Farmington, Conn. USA) were administered subcutaneously with vehicle (NaCl 0.9%) (Control group) or with the peptide at 1 and 3 mg/kg (Test groups) (n=5-8 animals for each group) twice daily for 28 days. The first day of dosing was designated as Day 1. Bolus injection was carried out using a sterile syringe and the needle was introduced subcutaneously, 2 to 4 injection sites were used in rotation. The hair of the animals on the injection area was clipped prior to the first injection and then as necessary during the treatment period. The volume administered was 5 mL/kg/administration. Individual dose volumes were calculated using the latest body weight. On day 27, 16-hour mean blood glucose levels were assessed in normal fed conditions. On day 28, fasted (4 hours) mice were injected intraperitoneally with glucose at 1 g/kg. Plasma blood glucose profile (expressed as mg/dL) was recorded every minute up to 3-hour post glucose injection.\nIntraperitoneal glucose tolerance test (IPGTT)—On the morning of the IGPTT day (day 28), 2-hour fasted animals were treated with vehicle or with the HBD fragment. Glucose solution was administered 2 hours±15 minutes post-dosing (vehicle or a peptide as set forth in SEQ ID NO: 73 (C18:0-HLGLEEPKK). Blood glucose was monitored from 10 minutes before (fasting condition) to 3-hour post-glucose challenge. Food was re-introduced 4 hours post-glucose challenge. The second treatment of the day (the HBD fragment or vehicle) was performed 2 hours after food re-introduction."}}, "note": "Entries after “also recorded” stand apart in the source; their conditions may differ. No end group written: not given here. *: point of attachment. Stearoyl = CCCCCCCCCCCCCCCCCC(=O)*"}
{"substance": "C18:0-HLGLEEPKK (Stearoyl-HLGLEEPKK) [SEQ ID NO: 73]", "values": [{"measurement": "phosphorylated AMPK (T172)", "setting": "[1]", "result": "dose-dependent increase in phosphorylated AMPK; also recorded: dose-dependent phosphorylation (activation) of the AMPK pathway"}, {"measurement": "glucose uptake by C2C12 myotubes, dose dependence (FIG. 5A)", "setting": "[2]; 0.8 μM, 1.5 μM and 2.3 μM, vs vehicle-treated controls", "result": "stimulated increased glucose uptake as compared with vehicle-treated controls in both a dose- and time-dependent manner"}, {"measurement": "glucose uptake by C2C12 myotubes, time dependence (FIG. 5B)", "setting": "[2]; 1.5 μM for 2, 4 and 16 hours", "result": "time-dependent manner"}, {"measurement": "glucose uptake by C2C12 myotubes with insulin, separate experiment (FIG. 8)", "setting": "[2]; 1.5 μM plus insulin", "result": "act additively with insulin; also recorded: in an additive manner with insulin"}, {"measurement": "glucose uptake by C2C12 myotubes, separate experiment (FIG. 8)", "setting": "[2]; 1.5 μM, alone", "result": "increased glucose uptake"}, {"measurement": "glucose uptake by C2C12 myotubes in combination with insulin (FIG. 5C)", "setting": "[2]; peptide plus insulin", "result": "additive increase in glucose uptake"}, {"measurement": "glucose intolerance (3-hour IPGTT profile)", "setting": "[3]", "result": "improved glucose intolerance in a dose-dependent manner"}, {"measurement": "glucose intolerance (3-hour IPGTT profile)", "setting": "[3]; listed as acylated HBD1 (3-11) fragment", "result": "improves glucose intolerance"}, {"measurement": "effect on fasting glucose levels and glucose excursion following IPGTT at the high dose", "setting": "[3]; ob/ob mice, 3 mg/kg twice daily, 4 weeks", "result": "marked effect"}, {"measurement": "glucose excursion following IPGTT", "setting": "[3]; ob/ob mice, after 4 weeks (28 days), 1 and 3 mg/kg twice daily", "result": "decreased"}, {"measurement": "fasting glucose levels", "setting": "[3]; ob/ob mice, after 4 weeks (28 days), average within 10 min prior to IPGTT, 1 and 3 mg/kg twice daily", "result": "decreased fasting glucose levels"}, {"measurement": "16-hour mean blood glucose levels", "setting": "[3]; ob/ob mice", "result": "markedly decrease 16-hour average blood glucose levels"}, {"measurement": "16-hour mean blood glucose levels", "setting": "[3]; ob/ob mice, listed as acylated HBD1 (3-11) fragment", "result": "improves glucose intolerance"}]}
